Data reported in patent US20200164100A1, “SURGICAL METHODS EMPLOYING PURIFIED AMPHIPHILIC PEPTIDE COMPOSITIONS” (priority 2013, published 2020).

Tested on: signal transduction system of living organisms
Assay: Cell culture experiments on bioactivity of the main constituent peptide
Format: cell-based
Settings: data not shown

## CH3CO-(Arg-Ala-Asp-Ala)4-NH2
  bioactivity by acting on the signal transduction system of living organisms: does not exhibit bioactivity
